# Test results reported in US20090325933A1, “Pyrimidinone Derivatives and Their Use as a Drug” (Ipsen Pharma S.A.S., priority 2006, published 2009).
# Where two headings read alike, the source gives them in different places.
# Target: T1, human CB2 receptors (Homo sapiens, UniProt P34972)
# T1 construct: expressed in transfected cells; membrane preparations
# Experiment: Affinity for human CB2 cannabinoid receptors: inhibition of [3H]-CP55940 binding to transfected CHO-K1 cell membranes
# Conditions: inhibition constant value range, [3H]-CP55940 1 nM, Cheng-Prusoff
# Experimental: The affinity of the compounds of the present invention for the different sub-types of cannabinoid receptors was measured according to procedures analogous to those described hereafter for the human CB2 receptor.
# Study of the Affinity of the Compounds for the Human CB2 Cannabinoid Receptors:
# The affinity of the compounds of the invention for the human CB2 receptors is determined by measuring the inhibition of the binding of [^3H]-CP55940 to transfected CHO-K1 cell membrane preparations.
# The CHO-K1 cells expressing the human CB2 receptors in stable fashion are cultured in an RPMI 1640 medium containing 10% foetal calf serum, 2 mM of glutamine, 100 U/ml of penicillin, 0.1 mg/ml of streptomycin and 0.5 mg/ml of G418. The cells are collected with 0.5 mM of EDTA and centrifuged at 500 g for 5 minutes at 4° C. The pellet is re-suspended in phosphate buffered saline medium (PBS) and centrifuged at 500 g for 5 minutes at 4° C. The pellet is re-suspended in a Tris 50 mM buffer medium at pH 7.4 and centrifuged at 500 g for 5 minutes at 4° C. The cells are lysed by sonication and centrifuged at 39,000 g for 10 minutes at 4° C. The pellet is re-suspended in the Tris 50 mM buffer medium at pH 7.4 and centrifuged at 50,000 g for 10 minutes at 4° C. The membranes obtained in this last pellet are stored at −80° C.
# Measurement of the competitive inhibition of the binding of the [^3H]-CP55940 to the CB2 receptors is carried out in duplicate using 96-well polypropylene plates. The cell membranes (10 μg of proteins/well) are incubated with the [^3H]-CP55940 (1 nM) for 60 minutes at 25° C. in a Tris-HCl 50 mM buffer medium, pH 7.4, comprising 0.1% bovine serum albumin (BSA), 5 mM of MgCl2, and 50 μg/ml of bacitracin.
# The bound [^3H]-CP55940 is separated from the free [^3H]-CP55940 by filtration through GF/C glass fibre filter plates (Unifilter, Packard) pre-impregnated with 0.1% polyethylenimine (P.E.I.), using a Filtermate 196 (Packard). The filters are washed with Tris-HCl 50 mM buffer, pH 7.4 at 0-4° C. and the radioactivity present is determined using a counter (Packard Top Count).
# The specific binding is obtained by subtracting the non-specific binding (determined in the presence of 0.1 μM of WIN55212-2 from the total binding). The data are analyzed by computer-assisted non-linear regression (MDL). For each test, a Cheng-Prusoff correction is made in order to convert the IC50 to the inhibition constant, Ki.
# where [L] is the concentration of the radioligand used in the test and Kd is the radioligand equilibrium dissociation constant.
# T1 sequence (P34972 whole entry): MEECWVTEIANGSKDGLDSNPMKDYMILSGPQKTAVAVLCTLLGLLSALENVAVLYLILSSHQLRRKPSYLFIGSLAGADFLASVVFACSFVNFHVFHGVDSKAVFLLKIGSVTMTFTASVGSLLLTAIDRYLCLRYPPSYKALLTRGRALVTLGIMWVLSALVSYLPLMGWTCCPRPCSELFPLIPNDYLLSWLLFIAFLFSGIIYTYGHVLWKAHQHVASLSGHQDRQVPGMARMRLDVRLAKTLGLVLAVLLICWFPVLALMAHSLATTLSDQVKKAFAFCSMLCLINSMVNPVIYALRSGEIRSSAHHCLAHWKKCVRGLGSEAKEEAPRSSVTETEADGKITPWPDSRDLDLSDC
Compound,Ki (read-out: Ki < 0.5 μM) [µM],Ki (read-out: Ki < 5 μM) [µM]
Cc1cccc(-c2ccc(-c3nc4c(C)c(C)sc4c(=O)n3CCN3CCCCC3)cc2)c1 [Example 70],< 0.5,< 5
O=c1c2sccc2nc(-c2ccc(-c3ccccc3)cc2)n1CCC1=CCCCC1 [Example 71],< 0.5,< 5
CC1CCCC(C)N1CCn1c(-c2ccc(-c3ccccc3)cc2)nc2ccsc2c1=O (stereo not drawn) [Example 72],,< 5
O=c1c2sccc2nc(-c2ccc(-c3ccc(F)cc3)cc2)n1CCN1CCCCC1 [Example 73],< 0.5,< 5
O=c1c2sccc2nc(-c2ccc(-c3cccc(C(F)(F)F)c3)cc2)n1CCN1CCCCC1 [Example 74],< 0.5,< 5
Cc1ccccc1-c1ccc(-c2nc3c(C)c(C)sc3c(=O)n2CCN2CCCCC2)cc1 [Example 75],< 0.5,< 5
COc1ccccc1-c1ccc(-c2nc3ccsc3c(=O)n2CCN2CCCCC2)cc1 [Example 76],< 0.5,< 5
Cc1cc2nc(-c3ccc(-c4ccccc4Cl)cc3)n(CCN3CCCCC3)c(=O)c2s1 [Example 77],< 0.5,< 5
Cc1cc2nc(-c3ccc(-c4ccccc4F)cc3)n(CCN3CCCCC3)c(=O)c2s1 [Example 78],< 0.5,< 5
O=c1c2sccc2nc(-c2ccc(-c3cccc(Cl)c3)cc2)n1CCN1CCCCC1 [Example 79],< 0.5,< 5
Cc1cc(C)cc(-c2ccc(-c3nc4ccsc4c(=O)n3CCN3CCCCC3)cc2)c1 [Example 80],< 0.5,< 5
Cc1cccc(C)c1-c1ccc(-c2nc3ccsc3c(=O)n2CCN2CCCCC2)cc1 [Example 81],< 0.5,< 5
O=c1c2sccc2nc(-c2ccc(-c3c(F)cccc3F)cc2)n1CCN1CCCCC1 [Example 82],< 0.5,< 5

# Results, then the compound that gave them:
Ki (read-out: Ki < 0.5 μM) [µM],Ki (read-out: Ki < 5 μM) [µM],Compound
< 0.5,< 5,Cc1cc2nc(-c3ccc(-c4ccccc4C(F)(F)F)cc3)n(CCN3CCCCC3)c(=O)c2s1 [Example 83]
< 0.5,< 5,Cc1cccc(-c2ccc(-c3nc4cc(C)sc4c(=O)n3CCN3CCCCC3)cc2)c1 [Example 84]
< 0.5,< 5,Cc1cc2nc(-c3ccc(-c4cccc(F)c4)cc3)n(CCN3CCCCC3)c(=O)c2s1 [Example 85]
< 0.5,< 5,Cc1cc2nc(-c3ccc(-c4cccc(Cl)c4)cc3)n(CCN3CCCCC3)c(=O)c2s1 [Example 86]
< 0.5,< 5,Cc1cc2nc(-c3ccc(-c4cccc(C(F)(F)F)c4)cc3)n(CCN3CCCCC3)c(=O)c2s1 [Example 87]
< 0.5,< 5,COc1cccc(-c2ccc(-c3nc4cc(C)sc4c(=O)n3CCN3CCCCC3)cc2)c1 [Example 88]
< 0.5,< 5,COc1cccc(-c2ccc(-c3nc4ccsc4c(=O)n3CCN3CCCCC3)cc2)c1 [Example 89]
< 0.5,< 5,Cc1cc2nc(-c3ccc(-c4c(Cl)cccc4Cl)cc3)n(CCN3CCCCC3)c(=O)c2s1 [Example 90]
< 0.5,< 5,Cc1cc2nc(-c3ccc(-c4c(C)cccc4C)cc3)n(CCN3CCCCC3)c(=O)c2s1 [Example 91]
< 0.5,< 5,O=c1c2sccc2nc(-c2ccc(-c3cc(Cl)cc(Cl)c3)cc2)n1CCN1CCCCC1 [Example 92]
